Read-outs that look alike come from different tables or passages of the source.
Experiments:
[1] = tested on: intracellular Salmonella in RAW264.7 cells; test: Intracellular Salmonella viability with autophagy inhibitor 3-MA (HCA); type: cell-based, S. typhimurium
Protocol: FIG. 7. Infected RAW264.7 cells treated with 10 mM of 3-MA for 1 h followed by 0.5 μM of SW14 or mock (DMSO) treatment for 24 hours.
Autophagy was originally characterized as a cellular response to stress, but has been considered to be a defense mechanism to combat host cell infection by intracellular Salmonella. Therefore, to evaluated the role of autophagy in SW14's anti-intracellular Salmonella activity, infected cells are treated with 3-MA, an autophagy inhibitor to block cellular autophagy then followed by treatment with SW14 for 24 h. […] Compared to mock-treated cells, the viability of intracellular Salmonella in cells treated with SW14 or the combination of 3-MA and SW14 were 45% and 36.8%, respectively.

[2] = tested on: Salmonella Typhimurium 0911R; test: MIC of antibiotics, multidrug-resistant isolate 0911R; type: cell-based; conditions: Table 5; for MIC: Salmonella enterica, TYPHIMURIUM
[3] = tested on: Salmonella Typhimurium ATCC 14028; test: MIC of antibiotics, strain ATCC 14028; type: cell-based; conditions: for MIC: Salmonella enterica
[4] = tested on: Salmonella Typhimurium NL08.10; test: MIC of antibiotics, multidrug-resistant isolate NL08.10; type: cell-based; conditions: Table 5; for MIC: Salmonella enterica, TYPHIMURIUM
[5] = tested on: Salmonella Typhimurium SA10; test: MIC of antibiotics, ciprofloxacin-resistant strain SA10; type: cell-based; conditions: Table 6; for MIC: Salmonella enterica, TYPHIMURIUM
[6] = tested on: intracellular Salmonella in RAW264.7 cells; test: Intracellular Salmonella with cefixime or ciprofloxacin alone or combined with SW14 (HCA); type: cell-based; conditions: 24 hours
Protocol: FIG. 4. Salmonella-infected RAW264.7 cells treated with (A) 0.25, 0.5, 1, 2, and 4 mg/L of cefixime (CFM) and (B) 0.03, 0.06, 0.125, 0.25, and 0.5 mg/L of ciprofloxacin (CIP) alone or in combination with 0.5 μM SW14. After 24 hours, the relative numbers of intracellular bacteria were determined using HCA and the results are expressed as relative fluorescence units (RFU).

[7] = tested on: Salmonella Typhimurium SB10; test: MIC of antibiotics, ciprofloxacin-resistant strain SB10; type: cell-based; conditions: Table 6; for MIC: Salmonella enterica, TYPHIMURIUM
[8] = tested on: ROS levels in infected macrophages; test: ROS production in Salmonella-infected RAW264.7 cells (H2DCFDA); type: cell-based; conditions: 1 hour; SW14 at concentrations up to 8 μM
Protocol: FIG. 10. […] The viabilities of intracellular Salmonella in RAW264.7 cells treated with SW14 with/without the ROS scavengers N-acetyl-cysteine (NAC; 10 mM) or glutathione (GSH; 10 mM) are assessed using HCA. […] Salmonella-infected RAW264.7 cells are loaded with 25 μM H2DCFDA for 45 min followed by treatment with SW14 or PMA at various concentrations. […] S. Typhimurium ATCC 14028 is treated with H2O2 alone or in combination with SW14 (0.5 μM) in (C) LB or (D) LPM for 1 hour followed by evaluation by the CFU assay to determine bacterial viability.

[9] = tested on: S. Typhimurium ATCC 14028; test: Bacterial susceptibility to H2O2 (CFU assay); type: cell-based, Salmonella Typhimurium; conditions: 1 hour
Protocol: (§1) FIG. 10. SW14 sensitizing outer membrane-compromised S. typhimurium to oxidative stress. (A) ROS scavengers reversed the suppressive effects of SW14 on intracellular S. typhimurium. The viabilities of intracellular Salmonella in RAW264.7 cells treated with SW14 with/without the ROS scavengers N-acetyl-cysteine (NAC; 10 mM) or glutathione (GSH; 10 mM) are assessed using HCA. […] Salmonella-infected RAW264.7 cells are loaded with 25 μM H2DCFDA for 45 min followed by treatment with SW14 or PMA at various concentrations. […] S. Typhimurium ATCC 14028 is treated with H2O2 alone or in combination with SW14 (0.5 μM) in (C) LB or (D) LPM for 1 hour followed by evaluation by the CFU assay to determine bacterial viability.
Next, the effects of SW14 on bacterial resistance to ROS are investigated.

S. typhimurium = test: Bacterial growth in medium (OD600); type: cell-based; conditions: LB medium and macrophage culture medium, concentrations up to 64 μM, 24 hours
Protocol: FIG. 6. The growth of S. typhimurium in LB medium, cell culture medium (CCM), or LPM medium containing 0, 0.5, and 64 μM of SW14 monitored by measuring the OD600 of each bacterial culture at designated times for a total of 24 h.

RAW264.7 = test: Cytotoxicity in RAW264.7 cells (HCA, MTT cell viability assay); type: cell-based; conditions: Mus musculus, RAW264.7, read-out: IC50 (μM) RAW264.7
Protocol: The cell viability was evaluated using HCA and an MTT cell viability assay, and the data are expressed as a percentage relative to the untreated control and are presented as the mean±SD (n=3 per group).

S. Typhimurium 14028 = test: Anti-intracellular Salmonella activity in infected RAW264.7 cells (HCA); type: cell-based, Salmonella Typhimurium
[10] = tested on: ciprofloxacin-resistant strain SA10 and SB10; conditions: SA10 and SB10, SW14 0.3-10 μM with gentamicin, 24 h
Protocol: (§2) FIG. 5. RAW264.7 cells infected with (A) multidrug-resistant strains of S. Typhimurium ATCC 14028, NL08., and 100911R or (B) ciprofloxacin-resistant strains of S. typhimurium ATCC 14028, SA10, and SB10 followed by treatment with 0, 0.3, 1, 3, and 10 μM of SW14 combined with […] gentamicin for 24 h. The relative numbers of intracellular bacteria were determined using HCA and the results are expressed as relative fluorescence units (RFU).
Then extended the investigation to S. typhimurium isolates with resistance to ciprofloxacin.

[11] = tested on: intracellular Salmonella in Atg7 knockdown RAW264.7 cells; test: Intracellular bacterial survival in RAW264.7 cells with Atg7 knockdown (HCA); type: cell-based, S. typhimurium; conditions: shRNA Atg7 knockdown RAW264.7 cells, SW14 0.3 and 1 μM, 24 hours
From the text: FIG. 8. RAW264.7 cells transfected with a plasmid to express shRNA targeting Atg7 (shATG7). The levels of the Atg7 protein in the stable transfectants as determined by immunoblotting. Bands for Atg7 were quantified by densitometry and normalized to those of β-actin. Percentages represent the relative expression levels of Atg7 in the shATG7 transfectants compared to the vector transfectants.
FIG. 9. Intracellular bacterial survival in SW14-treated RAW264.7 cells with shRNA-mediated knockdown of Atg7 expression. RAW264.7 cells were transfected with the empty vector (Vec) and infected with S. typhimurium followed by treatment with 0, 0.3, and 1 μM of SW14 and […] gentamicin for 24 hours. The numbers of surviving intracellular bacteria are determined by HCA and the results are expressed as a percentage of the control group. Data shown are the means; error bars represent the SD (n=3). ns: non-significant, P>0.05; *P<0.05 for the differences between the drug-treated groups and their respective control groups.

[12] = tested on: S. Typhimurium within macrophages; test: Intracellular Salmonella viability with ROS scavengers (HCA); type: cell-based, Salmonella Typhimurium; conditions: NAC 10 mM or GSH 10 mM
Protocol: as §1
Oxidative stress is another innate defense system in host cells that controls intracellular Salmonella infection. In FIG. 10(A), the suppressive effects of SW14 against S. Typhimurium within macrophages are reversed in the presence of two ROS scavengers, N-acetyl cysteine (NAC) and glutathione (GSH).

[13] = tested on: intracellular Salmonella in RAW264.7 cells; test: Intracellular bacteria survival, colony-forming unit assay; conditions: sub-micromolar concentrations, gentamicin 20 mg/L, 24 h
Protocol: The intracellular bacteria survival was assessed using HCA and a CFU assay, and the data are expressed as a percentage relative to the untreated control and are presented as the mean±SD (n=3 per group).

[14] = tested on: multidrug-resistant S. typhimurium NL08.10 and 0911R; conditions: SW14 0.3-10 μM with gentamicin, 24 h
Protocol: as §2

[15] = CAMH medium, read-out: MIC S. Typhimurium ATCC 14028, CAMH
[16] = LB medium, read-out: MIC S. Typhimurium ATCC 14028, LB
[17] = Table 5, read-out: MIC ATCC 14028
[18] = acidic LPM medium, read-out: MIC S. Typhimurium ATCC 14028, LPM
[19] = Table 6, read-out: MIC ATCC 14028

Cn1cnc(=N)c2[nH]cnc21 [3-MA, reference compound]
relative number of intracellular bacteria in 3-MA-treated cells ([1]; 10 mM 3-MA): increased significantly

CC1(C)S[C@@H]2[C@H](NC(=O)[C@H](N)c3ccccc3)C(=O)N2[C@H]1C(=O)O [Ampicillin]
MIC [2]: > 64 µg/mL | MIC [3, 15]: 4 µg/mL | MIC [3, 16]: 4 µg/mL | MIC [3, 17]: 16 µg/mL | MIC [3, 18]: 1 µg/mL | MIC [4]: > 64 µg/mL

O=C(N[C@H](CO)[C@H](O)c1ccc([N+](=O)[O-])cc1)C(Cl)Cl [Chloramphenicol]
MIC [2]: 32 µg/mL | MIC [3, 17]: 16 µg/mL | MIC [4]: 32 µg/mL

O=C(O)c1cn(C2CC2)c2cc(N3CCNCC3)c(F)cc2c1=O [Ciprofloxacin, ciprofloxacin]
MIC [5]: 4 µg/mL | MIC [3, 19]: < 0.125 µg/mL | survival of intracellular Salmonella in macrophages, antibiotic treatment ([6]; alone or combined with 0.5 μM SW14): inhibited the survival of intracellular Salmonella in macrophages in a dose-dependent manner | MIC [7]: 4 µg/mL

CC1COc2c(N3CCN(C)CC3)c(F)cc3c(=O)c(C(=O)O)cn1c23 (stereo not shown) [Ofloxacin]
MIC [5]: 8 µg/mL | MIC [3, 19]: < 0.125 µg/mL | MIC [7]: 8 µg/mL

CCCCCCCCCCCCCC(=O)O[C@@H]1[C@@H](C)[C@@]2(O)[C@@H](C=C(CO)C[C@]3(O)C(=O)C(C)=C[C@@H]23)[C@@H]2C(C)(C)[C@]12OC(C)=O [PMA, reference compound]
ROS levels (H2DCFDA signal) in infected macrophages [8]: significantly elevated ROS levels

CO[C@H]1/C=C/O[C@@]2(C)Oc3c(C)c(O)c4c(O)c(c(/C=N/N5CCN(C)CC5)c(O)c4c3C2=O)NC(=O)/C(C)=C\C=C\[C@H](C)[C@H](O)[C@@H](C)[C@@H](O)[C@@H](C)[C@H](OC(C)=O)[C@@H]1C [Rifampin]
MIC [3, 15]: 16 µg/mL | MIC [3, 16]: 16 µg/mL | MIC [3, 18]: 4 µg/mL

Clc1ccc2c(c1)C(NCCN1CCNCC1)=Nc1ccccc1O2 [SW14, 2-chloro-N-(2-(piperazin-1-yl)ethyl)dibenzo[b,f][1,4]oxazepin-11-amine]
susceptibility of S. typhimurium to H2O2 after SW14 treatment, LB broth ([9]; 0.5 μM SW14, LB broth): not in LB broth | susceptibility of S. typhimurium to H2O2 after SW14 treatment, LPM medium ([9]; 0.5 μM SW14, LPM medium): significantly increasing | inhibitory effect on growth of bacteria in medium (S. typhimurium): did not show significant inhibitory effects | IC50 (RAW264.7): 28.7 µM | Selectivity ratio (IC50/EC50) (S. Typhimurium 14028; IC50 RAW264.7 / EC50 S. Typhimurium 14028): 80.6 | EC50 (S. Typhimurium 14028; Salmonella enterica, TYPHIMURIUM, RAW264.7, read-out: EC50 (μM) S. Typhimurium 14028, intracellular Salmonella in infected RAW264.7 cells): 0.5 µM | EC50 (S. Typhimurium 14028; read-out: EC50 (μM) S. Typhimurium 14028, intracellular Salmonella in infected RAW264.7 cells): 0.4 µM | intracellular proliferation of ciprofloxacin-resistant isolates [10]: still highly sensitive | susceptibility of intracellular Salmonella to SW14 after knockdown of Atg7 [11]: more susceptible | viability of intracellular Salmonella compared to mock-treated cells, combination of 3-MA and SW14 ([1]; 10 mM 3-MA 1 h, then 0.5 μM SW14 24 hours): 36.8% | viability at 0.5 µM ([1]; Salmonella, RAW264.7, 24 h, read-out: viability of intracellular Salmonella compared to mock-treated cells): 45% | suppressive effects against S. Typhimurium within macrophages in presence of ROS scavengers [12]: reversed | effect on viability of intracellular Salmonella (CFU assay) [13]: potent suppressive effect | ROS levels (H2DCFDA signal) in infected macrophages [8]: did not observe any significant change | enhancement of antibiotic suppression of intracellular Salmonella ([6]; 0.5 μM SW14 combined with CFM or CIP): can enhance the suppression caused by these antibiotics | intracellular replication of multidrug-resistant S. typhimurium isolates [14]: remained susceptible

[H]/N=C(/N)N[C@H]1[C@H](O)[C@@H](O)[C@H](O[C@@H]2O[C@@H](C)[C@](O)(C=O)[C@H]2O[C@@H]2O[C@@H](CO)[C@H](O)[C@@H](O)[C@@H]2NC)[C@@H](N/C(N)=N\[H])[C@@H]1O [Streptomycin]
MIC [2]: > 64 µg/mL | MIC [3, 17]: 32 µg/mL | MIC [4]: > 64 µg/mL

CN(C)[C@@H]1C(O)=C(C(N)=O)C(=O)[C@@]2(O)C(O)=C3C(=O)c4c(O)cccc4[C@@](C)(O)[C@H]3C[C@@H]12 [Tetracycline]
MIC [2]: > 64 µg/mL | MIC [3, 17]: 8 µg/mL | MIC [4]: > 64 µg/mL

CN[C@H](CC(C)C)C(=O)N[C@H]1C(=O)N[C@@H](CC(N)=O)C(=O)N[C@H]2C(=O)N[C@H]3C(=O)N[C@H](C(=O)N[C@H](C(=O)O)c4cc(O)cc(O)c4-c4cc3ccc4O)[C@H](O)c3ccc(c(Cl)c3)Oc3cc2cc(c3O[C@@H]2O[C@H](CO)[C@@H](O)[C@H](O)[C@H]2O[C@H]2C[C@](C)(N)[C@H](O)[C@H](C)O2)Oc2ccc(cc2Cl)[C@H]1O [Vancomycin]
MIC [3, 15]: 2050 µg/mL | MIC [3, 16]: 512 µg/mL | MIC [3, 18]: 128 µg/mL

Gentamycin
MIC 0911R [2]: 2 µg/mL | MIC SA10 [5]: 0.5 µg/mL | MIC ATCC 14028 ([3]; Table 5): 2 µg/mL | MIC ATCC 14028 ([3]; Table 6): 2 µg/mL | MIC NL08.10 [4]: 2 µg/mL | MIC SB10 [7]: 1 µg/mL

From patent US11925650B2, “Antibacterial chemical compound, its manufacturing method and its use thereof” (National Taiwan University, priority 2022, dated 2024)
